According to patent publication US20250120981A1, “MRTX1133 PHARMACEUTICAL COMPOSITIONS” (MIRATI THERAPEUTICS, INC., priority 2023, published 2025):
Values joined by “and” are separate entries in the source; they are usually repeats but may differ in a detail not shown here. Identical values can stand only once. Like-named read-outs stand apart in the source and are kept apart here.

Experiment: Pharmacokinetics in humans, MRTX1133 formulation, oral, single and multiple doses
Assay type: in vivo
Settings: for AUC0-12 Accumulation Ratio, Geo Mean / Cmax Accumulation Ratio, Geo Mean / Peak to Trough Ratio, Geo Mean: geometric mean of subjects
Experimental: The pharmacokinetics [PK] of the MRTX1133 formulation after oral administration has been evaluated in 25 subjects across 3 escalating dose frequencies under fasting conditions (200 mg twice daily [BID], 400 mg BID, and 800 mg BID), as well as evaluation of 400 mg BID when administered with a low-fat meal (i.e., under fed conditions). The mean (+standard deviation) single-dose and multiple-dose pharmacokinetic profiles of the evaluated doses are presented in FIG. 9 and FIG. 10, respectively. Individual single- and multiple-dose PK profiles can be found in FIG. 11. For all figures, the X-axis represents nominal time of sample collection (hours [h]) and the Y-axis represents plasma concentration (ng/mL). Table 10 lists PK data following the oral administration of a single dose and multiple doses of MRTX1133 formulation by dose level and subject.

[1] = multiple oral doses of 200 mg BID, fasted
[2] = multiple oral doses of 200 mg BID, fasted, individual subjects
[3] = multiple oral doses of 400 mg BID with a low-fat meal
[4] = multiple oral doses of 400 mg BID with a low-fat meal, individual subjects
[5] = multiple oral doses of 400 mg BID, fasted
[6] = multiple oral doses of 400 mg BID, fasted, individual subjects
[7] = multiple oral doses of 800 mg BID, fasted, Geo Mean of subjects

C#Cc1c(F)ccc2cc(O)cc(-c3ncc4c(N5C[C@H]6CC[C@@H](C5)N6)nc(OC[C@@]56CCCN5C[C@H](F)C6)nc4c3F)c12 [MRTX1133, 4-(4-((1R,5S)-3,8-diazabicyclo[3.2.1]octan-3-yl)-8-fluoro-2-(((2R,7aS)-2-fluorohexahydro-1Hpyrrolizin-7a-yl)methoxy)pyrido[4,3-d]pyrimidin-7-yl)-5-ethynyl-6-fluoronaphthalen-2-ol]
concentration at 0 h (human, plasma, po, 800 mg, single oral dose of 800 mg, fasted, 0 h, individual subjects, read-out: Plasma concentration): 0 ng/mL | concentration at 0.5 h (human, plasma, po, 800 mg, single oral dose of 800 mg, fasted, 0.5 h, mean of subjects, read-out: Plasma concentration, Mean): 235 ng/mL | concentration at 1 h (human, plasma, po, 800 mg, single oral dose of 800 mg, fasted, 1 h, mean of subjects, read-out: Plasma concentration, Mean): 286 ng/mL | concentration at 1.5 h (human, plasma, po, 800 mg, single oral dose of 800 mg, fasted, 1.5 h, mean of subjects, read-out: Plasma concentration, Mean): 151 ng/mL | concentration at 2 h (human, plasma, po, 800 mg, single oral dose of 800 mg, fasted, 2 h, mean of subjects, read-out: Plasma concentration, Mean): 117 ng/mL | concentration at 4 h (human, plasma, po, 800 mg, single oral dose of 800 mg, fasted, 4 h, mean of subjects, read-out: Plasma concentration, Mean): 67.6 ng/mL | concentration at 6 h (human, plasma, po, 800 mg, single oral dose of 800 mg, fasted, 6 h, mean of subjects, read-out: Plasma concentration, Mean): 57.9 ng/mL | concentration at 8 h (human, plasma, po, 800 mg, single oral dose of 800 mg, fasted, 8 h, mean of subjects, read-out: Plasma concentration, Mean): 49.7 ng/mL | concentration at 12 h (human, plasma, po, 800 mg, single oral dose of 800 mg, fasted, 12 h, mean of subjects, read-out: Plasma concentration, Mean): 12.6 ng/mL | concentration at 24 h (human, plasma, po, 800 mg, single oral dose of 800 mg, fasted, 24 h, mean of subjects, read-out: Plasma concentration, Mean): 25.5 ng/mL | AUC(0-t) (human, plasma, po, 800 mg, single oral dose of 800 mg, fasted, Geo Mean of subjects, read-out: AUC0-12): 440 ng·h/mL | AUC0-inf (human, plasma, po, 800 mg, single oral dose of 800 mg, fasted, Geo Mean of subjects, read-out: AUC0-inf): 543 ng·h/mL | AUC(0-t) (human, plasma, po, 800 mg, single oral dose of 800 mg, fasted, Geo Mean of subjects, read-out: AUC0-last): 463 ng·h/mL | Cmax (human, plasma, po, 800 mg, single oral dose of 800 mg, fasted, Geo Mean of subjects, read-out: Cmax): 123 ng/mL | Tmax (human, plasma, po, 800 mg, single oral dose of 800 mg, fasted, Median of subjects, read-out: Tmax): 1.2 h | AUC0-12 Accumulation Ratio, Geo Mean [1]: 0.9 | Cmax Accumulation Ratio, Geo Mean [1]: 0.6 | Peak to Trough Ratio, Geo Mean [1]: 12.3 | AUC0-12 [2]: 181 ng·h/mL and 84.0 ng·h/mL and 42.9 ng·h/mL and 115 ng·h/mL | AUC0-12 Accumulation Ratio [2]: 1.30 and 0.94 and 0.44 and 1.16 | AUC0-last [2]: 181 ng·h/mL and 84.0 ng·h/mL and 42.9 ng·h/mL and 115 ng·h/mL and 31.9 ng·h/mL | Cmax [2]: 85.0 ng/mL and 15.0 ng/mL and 49.4 ng/mL and 56.2 ng/mL and 17.1 ng/mL | Cmax Accumulation Ratio [2]: 0.73 and 0.71 and 0.85 and 1.26 and 0.14 | Peak to Trough Ratio [2]: 52.1 and 2.75 and 78.2 and 24.9 and 1.02 | Tlast [2]: 12 h (4×) and 2.0 h | Tmax [2]: 0.5 h | AUC0-12 Accumulation Ratio, Geo Mean [3]: 1.7 | Cmax Accumulation Ratio, Geo Mean [3]: 1.9 | Peak to Trough Ratio, Geo Mean [3]: 12.9 | AUC0-12 [4]: 1,475 ng · h/mL and 457 ng · h/mL and 107 ng · h/mL and 127 ng · h/mL | AUC0-12 Accumulation Ratio [4]: 2.61 and 1.50 and 2.52 and 0.75 | AUC0-last [4]: 1,475 ng · h/mL and 457 ng · h/mL and 107 ng · h/mL and 127 ng · h/mL | Cmax [4]: 390 ng/mL and 250 ng/mL and 48.2 ng/mL and 23.0 ng/mL | Cmax Accumulation Ratio [4]: 4.69 and 2.66 and 1.71 and 0.63 | Peak to Trough Ratio [4]: 7.25 and 84.7 and 10.6 and 4.27 | Tlast [4]: 12 h | Plasma concentration (multiple oral doses of 400 mg BID, fasted, 0.5 h, individual subjects): 79.1 ng/mL and 58.5 ng/mL and 82.8 ng/mL and 83.0 ng/mL and 29.7 ng/mL and 23.6 ng/mL and 152 ng/mL | Plasma concentration (multiple oral doses of 400 mg BID, fasted, 1 h, individual subjects): 129 ng/mL and 31.5 ng/mL and 61.2 ng/mL and 38.4 ng/mL and 11.5 ng/mL and 44.7 ng/mL and 285 ng/mL | Plasma concentration (multiple oral doses of 400 mg BID, fasted, 1.5 h, individual subjects): 90.2 ng/mL and 28.5 ng/mL and 38.9 ng/mL and 32.3 ng/mL and 15.2 ng/mL and 38.0 ng/mL and 209 ng/mL | Plasma concentration (multiple oral doses of 400 mg BID, fasted, 2 h, individual subjects): 99.0 ng/mL and 27.2 ng/mL and 55.6 ng/mL and 23.4 ng/mL and 21.1 ng/mL and 30.0 ng/mL and 83.1 ng/mL | Plasma concentration (multiple oral doses of 400 mg BID, fasted, 4 h, individual subjects): 82.8 ng/mL and 11.0 ng/mL and 115 ng/mL and 23.8 ng/mL and 5.34 ng/mL and 233 ng/mL and 70.5 ng/mL | Plasma concentration (multiple oral doses of 400 mg BID, fasted, 6 h, individual subjects): 189 ng/mL and 2.51 ng/mL and 45.3 ng/mL and 10.7 ng/mL and 4.38 ng/mL and 148 ng/mL and 43.8 ng/mL | Plasma concentration (multiple oral doses of 400 mg BID, fasted, 8 h, individual subjects): 88.9 ng/mL and 2.27 ng/mL and 33.3 ng/mL and 8.36 ng/mL and 3.68 ng/mL and 110 ng/mL and 35.5 ng/mL | Plasma concentration (multiple oral doses of 400 mg BID, fasted, 12 h, individual subjects): 76.9 ng/mL and 2.76 ng/mL and 31.2 ng/mL and 6.42 ng/mL and 3.71 ng/mL and 42.1 ng/mL and 31.3 ng/mL | AUC0-12 Accumulation Ratio, Geo Mean [5]: 1.6 | Cmax Accumulation Ratio, Geo Mean [5]: 1.3 | Peak to Trough Ratio, Geo Mean [5]: 11.1 | AUC0-12 [6]: 1,237 ng · h/mL and 128 ng · h/mL and 640 ng · h/mL and 211 ng · h/mL and 89.4 ng · h/mL and 1,239 ng · h/mL and 821 ng · h/mL | AUC0-12 Accumulation Ratio [6]: 3.02 and 1.35 and 5.02 and 1.40 and 0.76 and 0.73 and 1.41 | AUC0-last [6]: 1,237 ng · h/mL and 128 ng · h/mL and 640 ng · h/mL and 211 ng · h/mL and 89.4 ng · h/mL and 1,239 ng · h/mL and 821 ng · h/mL | Cmax [6]: 189 ng/mL and 58.5 ng/mL and 115 ng/mL and 83.0 ng/mL and 29.7 ng/mL and 233 ng/mL and 285 ng/mL | Cmax Accumulation Ratio [6]: 3.04 and 0.94 and 1.73 and 1.17 and 0.80 and 0.83 and 1.52 | Peak to Trough Ratio [6]: 3.30 and 101 and 3.47 and 9.10 and 6.32 and 23.7 and 13.4 | Tlast [6]: 12 h | Tmax [6]: 6.0 h and 0.5 h (3×) | AUC0-12 Accumulation Ratio [7]: 1.0 | Cmax Accumulation Ratio [7]: 0.8 | Peak to Trough Ratio [7]: 9.6
